Experimental data reported in publication PMC5951806, “Rapid labelling and covalent inhibition of intracellular native proteins using ligand-directed N-acyl-N-alkyl sulfonamide” (Nature Communications, 2018).

Key:
Experiment in all cases: TMT LC-MSMS of 11-labelled proteins
Format in all cases: cell-based
[1] = target: T1, Isoform 1 of Voltage-dependent anion-selective channel protein 2 (VDAC2) (Homo sapiens, UniProt P45880)
T1 sequence (P45880 12-294 limits assumed): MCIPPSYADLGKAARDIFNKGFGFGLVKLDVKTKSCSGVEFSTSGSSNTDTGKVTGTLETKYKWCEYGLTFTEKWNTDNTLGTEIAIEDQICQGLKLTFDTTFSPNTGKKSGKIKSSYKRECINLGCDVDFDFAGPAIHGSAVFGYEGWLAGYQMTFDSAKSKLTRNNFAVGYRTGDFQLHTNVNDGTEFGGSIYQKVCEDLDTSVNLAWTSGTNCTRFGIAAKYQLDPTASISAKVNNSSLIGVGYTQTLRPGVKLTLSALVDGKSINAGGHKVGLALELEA

[2] = target: puromycin-sensitive aminopeptidase (NPEPPS) (Homo sapiens, UniProt P55786)
Desmoplakin (DSP) = Desmoplakin (DSP) (Homo sapiens, UniProt P15924)
[3] = target: Transferrin receptor protein 1 (TFRC) (Homo sapiens, UniProt P02786)
[4] = target: glyceraldehyde-3-phosphate dehydrogenase (GAPDH) (Homo sapiens, UniProt P04406)
[5] = sheet Exp1, SKBR3 cells, 11 0.5 µM 3 h vs DMSO
[6] = sheet Exp1, SKBR3 cells, 11 0.5 µM 3 h vs with PU-H71 10 µM
[7] = sheet Merged, SKBR3 cells, 11 0.5 µM 3 h vs DMSO
[8] = sheet Merged, SKBR3 cells, 11 0.5 µM 3 h vs with PU-H71 10 µM

Sequence of puromycin-sensitive aminopeptidase (NPEPPS) (P55786 whole entry): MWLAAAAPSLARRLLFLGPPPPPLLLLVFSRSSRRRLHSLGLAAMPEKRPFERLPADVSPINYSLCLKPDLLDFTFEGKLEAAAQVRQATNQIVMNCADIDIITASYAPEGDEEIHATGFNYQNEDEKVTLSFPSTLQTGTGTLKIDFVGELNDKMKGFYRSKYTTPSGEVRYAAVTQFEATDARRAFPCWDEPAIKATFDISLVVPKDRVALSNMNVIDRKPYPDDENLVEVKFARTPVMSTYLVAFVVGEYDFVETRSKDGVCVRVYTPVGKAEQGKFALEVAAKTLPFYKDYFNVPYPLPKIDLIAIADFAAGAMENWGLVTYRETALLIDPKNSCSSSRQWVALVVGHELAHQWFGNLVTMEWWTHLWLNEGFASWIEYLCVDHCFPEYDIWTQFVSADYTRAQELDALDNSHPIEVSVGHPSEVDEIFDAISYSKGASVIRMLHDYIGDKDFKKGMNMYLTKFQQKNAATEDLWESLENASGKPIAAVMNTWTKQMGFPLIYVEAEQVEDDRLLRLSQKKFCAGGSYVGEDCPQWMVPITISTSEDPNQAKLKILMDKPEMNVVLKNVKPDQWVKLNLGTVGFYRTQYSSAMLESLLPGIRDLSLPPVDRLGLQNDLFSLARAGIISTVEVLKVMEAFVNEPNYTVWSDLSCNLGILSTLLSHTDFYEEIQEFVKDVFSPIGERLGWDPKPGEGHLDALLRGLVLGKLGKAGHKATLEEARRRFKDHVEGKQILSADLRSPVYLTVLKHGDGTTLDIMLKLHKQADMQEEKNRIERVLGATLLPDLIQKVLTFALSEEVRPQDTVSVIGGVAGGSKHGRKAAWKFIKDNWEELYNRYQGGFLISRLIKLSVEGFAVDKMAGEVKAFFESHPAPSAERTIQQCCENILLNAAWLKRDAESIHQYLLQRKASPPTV
Sequence of Transferrin receptor protein 1 (TFRC) (P02786 whole entry): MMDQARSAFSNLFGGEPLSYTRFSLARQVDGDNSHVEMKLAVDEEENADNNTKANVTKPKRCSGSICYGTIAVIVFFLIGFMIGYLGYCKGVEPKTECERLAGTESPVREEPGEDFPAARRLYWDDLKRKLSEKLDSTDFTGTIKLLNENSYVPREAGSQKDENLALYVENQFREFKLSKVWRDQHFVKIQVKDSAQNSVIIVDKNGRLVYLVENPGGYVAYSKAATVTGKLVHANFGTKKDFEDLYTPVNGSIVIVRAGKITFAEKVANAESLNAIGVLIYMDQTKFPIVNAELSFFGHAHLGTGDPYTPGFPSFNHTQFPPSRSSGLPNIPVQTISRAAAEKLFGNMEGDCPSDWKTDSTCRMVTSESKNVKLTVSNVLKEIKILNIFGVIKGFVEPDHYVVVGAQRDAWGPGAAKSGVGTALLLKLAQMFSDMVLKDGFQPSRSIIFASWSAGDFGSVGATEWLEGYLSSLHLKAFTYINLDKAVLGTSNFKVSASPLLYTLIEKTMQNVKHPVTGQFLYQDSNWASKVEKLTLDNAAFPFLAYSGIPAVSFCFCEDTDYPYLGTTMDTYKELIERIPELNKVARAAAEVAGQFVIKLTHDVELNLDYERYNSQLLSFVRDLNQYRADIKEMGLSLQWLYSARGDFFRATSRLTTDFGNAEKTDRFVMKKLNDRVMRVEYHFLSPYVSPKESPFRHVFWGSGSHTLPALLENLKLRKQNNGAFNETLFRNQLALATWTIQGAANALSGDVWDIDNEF
Sequence of Desmoplakin (DSP) (P15924 whole entry): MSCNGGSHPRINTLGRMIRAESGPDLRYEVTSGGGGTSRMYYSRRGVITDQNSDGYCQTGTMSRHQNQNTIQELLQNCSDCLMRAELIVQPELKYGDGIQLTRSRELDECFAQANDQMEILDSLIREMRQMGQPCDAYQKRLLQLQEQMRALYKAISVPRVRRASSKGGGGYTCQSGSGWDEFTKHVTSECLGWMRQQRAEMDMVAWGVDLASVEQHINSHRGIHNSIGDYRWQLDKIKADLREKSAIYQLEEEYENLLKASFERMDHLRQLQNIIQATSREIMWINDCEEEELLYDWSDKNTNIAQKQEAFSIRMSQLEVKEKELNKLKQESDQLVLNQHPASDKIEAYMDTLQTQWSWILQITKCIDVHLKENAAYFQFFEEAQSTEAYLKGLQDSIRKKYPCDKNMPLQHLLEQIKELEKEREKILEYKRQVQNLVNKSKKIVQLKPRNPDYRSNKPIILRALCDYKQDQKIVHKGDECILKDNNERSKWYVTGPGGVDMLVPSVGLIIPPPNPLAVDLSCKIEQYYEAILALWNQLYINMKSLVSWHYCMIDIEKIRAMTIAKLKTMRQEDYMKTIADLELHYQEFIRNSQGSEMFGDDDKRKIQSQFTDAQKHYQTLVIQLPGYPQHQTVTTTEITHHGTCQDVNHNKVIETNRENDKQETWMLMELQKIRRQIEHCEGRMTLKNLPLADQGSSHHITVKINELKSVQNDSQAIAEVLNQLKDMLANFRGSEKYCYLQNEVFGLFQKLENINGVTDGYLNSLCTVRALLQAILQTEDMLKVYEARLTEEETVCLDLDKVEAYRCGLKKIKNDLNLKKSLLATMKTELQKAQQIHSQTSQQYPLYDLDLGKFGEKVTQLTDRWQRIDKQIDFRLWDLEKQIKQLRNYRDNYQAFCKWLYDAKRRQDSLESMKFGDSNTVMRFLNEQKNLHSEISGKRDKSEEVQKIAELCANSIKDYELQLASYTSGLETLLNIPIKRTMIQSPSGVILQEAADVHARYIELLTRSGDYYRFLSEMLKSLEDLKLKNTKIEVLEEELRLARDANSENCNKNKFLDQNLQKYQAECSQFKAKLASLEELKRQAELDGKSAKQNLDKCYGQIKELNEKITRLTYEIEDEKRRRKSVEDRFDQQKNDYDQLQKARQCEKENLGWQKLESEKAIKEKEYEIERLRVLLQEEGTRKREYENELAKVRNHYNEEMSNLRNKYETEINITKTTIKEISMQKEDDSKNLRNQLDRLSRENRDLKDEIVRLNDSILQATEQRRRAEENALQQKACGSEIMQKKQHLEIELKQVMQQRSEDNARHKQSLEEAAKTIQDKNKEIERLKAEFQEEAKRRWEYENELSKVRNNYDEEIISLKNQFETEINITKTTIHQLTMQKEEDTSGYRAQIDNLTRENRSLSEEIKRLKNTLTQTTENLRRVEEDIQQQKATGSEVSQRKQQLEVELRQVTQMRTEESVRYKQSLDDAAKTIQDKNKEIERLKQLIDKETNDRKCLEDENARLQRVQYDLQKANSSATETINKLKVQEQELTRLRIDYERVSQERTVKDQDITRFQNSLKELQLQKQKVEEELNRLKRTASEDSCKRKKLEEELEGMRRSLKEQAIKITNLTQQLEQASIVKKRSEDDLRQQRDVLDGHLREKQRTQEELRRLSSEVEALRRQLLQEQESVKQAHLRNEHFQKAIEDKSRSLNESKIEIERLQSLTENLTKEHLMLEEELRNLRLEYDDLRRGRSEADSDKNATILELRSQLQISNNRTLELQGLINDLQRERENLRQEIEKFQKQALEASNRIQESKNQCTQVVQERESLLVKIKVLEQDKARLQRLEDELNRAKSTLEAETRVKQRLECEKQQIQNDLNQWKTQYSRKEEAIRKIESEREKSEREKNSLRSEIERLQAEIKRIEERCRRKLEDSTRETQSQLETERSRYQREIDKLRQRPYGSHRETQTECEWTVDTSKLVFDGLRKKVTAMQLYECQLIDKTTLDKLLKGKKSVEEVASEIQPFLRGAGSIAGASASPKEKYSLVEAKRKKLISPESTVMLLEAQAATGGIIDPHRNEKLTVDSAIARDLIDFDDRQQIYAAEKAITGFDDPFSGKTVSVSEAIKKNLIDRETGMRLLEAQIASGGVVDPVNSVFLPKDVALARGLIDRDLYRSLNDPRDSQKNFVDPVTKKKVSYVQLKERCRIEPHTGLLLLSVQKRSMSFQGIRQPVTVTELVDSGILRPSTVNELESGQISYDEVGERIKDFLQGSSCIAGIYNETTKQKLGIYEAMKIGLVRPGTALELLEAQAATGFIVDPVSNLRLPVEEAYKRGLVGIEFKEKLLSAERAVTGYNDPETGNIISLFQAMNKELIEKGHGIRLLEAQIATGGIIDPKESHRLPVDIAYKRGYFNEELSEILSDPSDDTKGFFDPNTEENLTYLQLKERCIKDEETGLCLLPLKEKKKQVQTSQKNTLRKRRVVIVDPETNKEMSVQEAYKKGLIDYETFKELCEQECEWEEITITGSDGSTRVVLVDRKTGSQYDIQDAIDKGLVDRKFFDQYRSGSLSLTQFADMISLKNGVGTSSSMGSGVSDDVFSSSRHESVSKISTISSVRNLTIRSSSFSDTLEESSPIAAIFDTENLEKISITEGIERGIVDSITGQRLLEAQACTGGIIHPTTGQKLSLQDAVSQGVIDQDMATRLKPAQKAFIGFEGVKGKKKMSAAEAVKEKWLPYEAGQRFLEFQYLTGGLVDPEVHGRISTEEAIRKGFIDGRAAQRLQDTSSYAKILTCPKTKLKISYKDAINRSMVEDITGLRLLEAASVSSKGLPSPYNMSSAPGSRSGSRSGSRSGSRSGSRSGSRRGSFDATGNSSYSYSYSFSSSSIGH
Sequence of glyceraldehyde-3-phosphate dehydrogenase (GAPDH) (P04406 whole entry): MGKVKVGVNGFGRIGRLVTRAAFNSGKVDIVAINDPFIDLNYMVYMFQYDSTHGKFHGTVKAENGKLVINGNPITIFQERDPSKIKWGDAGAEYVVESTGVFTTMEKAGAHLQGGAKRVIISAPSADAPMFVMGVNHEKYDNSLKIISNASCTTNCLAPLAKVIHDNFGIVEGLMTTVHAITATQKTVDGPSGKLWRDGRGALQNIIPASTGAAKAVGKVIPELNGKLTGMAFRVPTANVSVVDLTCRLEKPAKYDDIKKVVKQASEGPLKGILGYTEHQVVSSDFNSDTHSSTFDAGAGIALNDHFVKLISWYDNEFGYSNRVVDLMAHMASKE

CC(=O)Oc1ccc2c(c1)Oc1cc(OC(C)=O)ccc1C21OC(=O)c2cc(C(=O)NCCOCCOCCNC(=O)CCCC(=O)N(CC#N)S(=O)(=O)c3ccc(C(=O)NCCCn4c(Sc5cc6c(cc5I)OCO6)nc5c(N)ncnc54)cc3)ccc21 [compound 11]
Abundance Ratio: (11) / (11 with PU-H71) ([1]; Exp3, VDAC2): 0.617
Abundance Ratio: (11) / (DMSO) ([1]; Exp3, VDAC2): 3.942
Abundances (Grouped): 11 ([1]; Exp3, VDAC2): 149
Abundances (Grouped): 11 with PU-H71 ([1]; Exp3, VDAC2, with PU-H71): 241.6
Abundance Ratio: (11) / (DMSO) [1, 5]: 2.647
Abundance Ratio: (11) / (11 with PU-H71) [1, 6]: 0.676
Abundance Ratio: (11) / (DMSO) [1, 7]: 2.786
Abundance Ratio: (11) / (11 with PU-H71) [1, 8]: 0.688
Abundance Ratio: (11) / (11 with PU-H71) ([2]; Exp3, NPEPPS): 0.586
Abundance Ratio: (11) / (DMSO) ([2]; Exp3, NPEPPS): 3.067
Abundances (Grouped): 11 ([2]; Exp3, NPEPPS): 616.5
Abundances (Grouped): 11 with PU-H71 ([2]; Exp3, NPEPPS): 1052.4
Abundance Ratio: (11) / (DMSO) [2, 5]: 3.569
Abundance Ratio: (11) / (11 with PU-H71) [2, 6]: 0.575
Abundance Ratio: (11) / (11 with PU-H71) ([2]; sheet Exp2, NPEPPS): 0.592
Abundance Ratio: (11) / (DMSO) ([2]; sheet Exp2, NPEPPS): 3.192
Abundances (Grouped): 11 ([2]; sheet Exp2, NPEPPS): 968.9
Abundances (Grouped): 11 with PU-H71 ([2]; sheet Exp2, NPEPPS): 1636.1
Abundance Ratio: (11) / (DMSO) [2, 7]: 3.569
Abundance Ratio: (11) / (11 with PU-H71) [2, 8]: 0.575
Abundance Ratio: (11) / (11 with PU-H71) (Desmoplakin (DSP); Exp3, DSP): 0.922
Abundance Ratio: (11) / (DMSO) (Desmoplakin (DSP); Exp3, DSP): 1.358
Abundances (Grouped): 11 (Desmoplakin (DSP); Exp3, DSP): 44.8
Abundances (Grouped): 11 with PU-H71 (Desmoplakin (DSP); Exp3, DSP): 48.6
Abundance Ratio: (11) / (11 with PU-H71) (Desmoplakin (DSP); sheet Exp2, DSP): 1.054
Abundance Ratio: (11) / (DMSO) (Desmoplakin (DSP); sheet Exp2, DSP): 1.067
Abundances (Grouped): 11 (Desmoplakin (DSP); sheet Exp2, DSP): 43.1
Abundances (Grouped): 11 with PU-H71 (Desmoplakin (DSP); sheet Exp2, DSP): 40.9
Abundance Ratio: (11) / (DMSO) (Desmoplakin (DSP); [7]): 1.203
Abundance Ratio: (11) / (11 with PU-H71) (Desmoplakin (DSP); [8]): 0.986
Abundance Ratio: (11) / (DMSO) [3, 5]: 1.5
Abundance Ratio: (11) / (11 with PU-H71) [3, 6]: 0.917
Abundance Ratio: (11) / (11 with PU-H71) ([3]; sheet Exp2, TFRC): 1.036
Abundance Ratio: (11) / (DMSO) ([3]; sheet Exp2, TFRC): 2.96
Abundances (Grouped): 11 ([3]; sheet Exp2, TFRC): 95.6
Abundances (Grouped): 11 with PU-H71 ([3]; sheet Exp2, TFRC, with PU-H71): 92.3
Abundance Ratio: (11) / (DMSO) [3, 7]: 2.107
Abundance Ratio: (11) / (11 with PU-H71) [3, 8]: 0.975
Abundance Ratio: (11) / (11 with PU-H71) ([4]; Exp3, GAPDH): 0.73
Abundance Ratio: (11) / (DMSO) ([4]; Exp3, GAPDH): 1.944
Abundances (Grouped): 11 ([4]; Exp3, GAPDH): 248.2
Abundances (Grouped): 11 with PU-H71 ([4]; Exp3, GAPDH): 340
Abundance Ratio: (11) / (DMSO) [4, 5]: 2.11
Abundance Ratio: (11) / (11 with PU-H71) [4, 6]: 0.674
Abundance Ratio: (11) / (11 with PU-H71) ([4]; sheet Exp2, GAPDH): 0.789
Abundance Ratio: (11) / (DMSO) ([4]; sheet Exp2, GAPDH): 3.189
Abundances (Grouped): 11 ([4]; sheet Exp2, GAPDH): 133
Abundances (Grouped): 11 with PU-H71 ([4]; sheet Exp2, GAPDH): 168.6
Abundance Ratio: (11) / (DMSO) [4, 7]: 2.267
Abundance Ratio: (11) / (11 with PU-H71) [4, 8]: 0.732
